US8394801B2, “Quinoxaline derivatives and their use for treating benign and malignant tumour disorders” (Aeterna Zentaris GmbH, priority 2009, dated 2013)

Legend:
HCT116 = assay: Proliferation assay (Alamar Blue / XTT), HCT116; type: cell-based; conditions: Homo sapiens; cell line HCT-116 (colon)
A549 = assay: Proliferation assay (Alamar Blue / XTT), A549; type: cell-based; conditions: Homo sapiens; cell line A549 (lung)
MDA MB468 = assay: Proliferation assay (Alamar Blue / XTT), MDA MB468; type: cell-based; conditions: Homo sapiens, MDA-MB-468; cell line MDA-MB468 (breast)
PC-3 = assay: Proliferation assay (Alamar Blue / XTT), PC-3; type: cell-based; conditions: Homo sapiens, cell line PC3 (prostate)
U87MG = assay: Proliferation assay (Alamar Blue / XTT), U87MG; type: cell-based; conditions: Homo sapiens, U-87 MG; cell line U87MG (glioma)

| melting point [°C] | EC50 (HCT116) [nM] | EC50 (A549) [nM] | EC50 (PC-3) [nM] | EC50 (U87MG) [nM] | SMILES | EC50 (MDA MB468) [nM] |
| --- | --- | --- | --- | --- | --- | --- |
| 251 |  |  |  |  | CNC(=O)Nc1cnc2ccc(-c3cc(C)c(O)c(C)c3)cc2n1 [Compound 16, 1-[7-(4-Hydroxy-3,5-dimethylphenyl)quinoxalin-2-yl]-3-methylurea] |  |
| 257 |  |  |  |  | CCNC(=O)Nc1cnc2ccc(-c3cc(C)c(O)c(C)c3)cc2n1 [Compound 19, 1-Ethyl-3-[7-(4-hydroxy-3,5-dimethylphenyl)quinoxalin-2-yl]urea] |  |
| 284 |  |  |  |  | Oc1c(Cl)cc(-c2ccc3ncc(NC(=S)NC4CCCCC4)nc3c2)cc1Cl [Compound 21, 1-Cyclohexyl-3-[7-(3,5-dichloro-4-hydroxyphenyl)quinoxalin-2-yl]-thiourea] |  |
| 271 to 272 |  |  |  |  | Cc1cc(-c2ccc3ncc(NC(=S)NC4CCCC4)nc3c2)cc(C)c1O [Compound 24, 1-Cyclopentyl-3-[7-(4-hydroxy-3,5-dimethylphenyl)quinoxalin-2-yl]-thiourea] |  |
| 238 to 240 |  |  |  |  | Cc1cc(-c2ccc3ncc(NC(=S)NC(C)(C)C)nc3c2)cc(C)c1O [Compound 25, 1-tert-Butyl-3-[7-(4-hydroxy-3,5-dimethylphenyl)quinoxalin-2-yl]thiourea] |  |
| 274 to 275 |  |  |  |  | CCCCCNC(=O)Nc1cnc2ccc(-c3cc(C)c(O)c(C)c3)cc2n1 [Compound 33, 1-[7-(4-Hydroxy-3,5-dimethylphenyl)quinoxalin-2-yl]-3-pentylurea] |  |
| 272 to 273 |  |  |  |  | CCCCCCNC(=O)Nc1cnc2ccc(-c3cc(C)c(O)c(C)c3)cc2n1 [Compound 35, 1-Hexyl-3-[7-(4-hydroxy-3,5-dimethylphenyl)quinoxalin-2-yl]urea] |  |
| > 300 |  |  |  |  | Cc1ccc(NC(=O)Nc2cnc3ccc(-c4cc(C)c(O)c(C)c4)cc3n2)cc1 [Compound 46, 1-[7-(4-Hydroxy-3,5-dimethylphenyl)quinoxalin-2-yl]-3-p-tolylurea] |  |
| > 300 |  |  |  |  | Cc1cc(-c2ccc3ncc(NC(=O)Nc4ccc(Cl)c(Cl)c4)nc3c2)cc(C)c1O [Compound 47, 1-(3,4-Dichlorophenyl)-3-[7-(4-hydroxy-3,5-dimethylphenyl)quinoxalin-2-yl]urea] |  |
| > 300 |  |  |  |  | COc1ccc(NC(=O)Nc2cnc3ccc(-c4cc(C)c(O)c(C)c4)cc3n2)cc1 [Compound 48, 1-[7-(4-Hydroxy-3,5-dimethylphenyl)quinoxalin-2-yl]-3-(4-methoxy-phenyl)urea] |  |
| > 300 |  |  |  |  | Cc1cc(-c2ccc3ncc(NC(=O)Nc4ccc5ccccc5c4)nc3c2)cc(C)c1O [Compound 50, 1-[7-(4-Hydroxy-3,5-dimethylphenyl)quinoxalin-2-yl]-3-naphthalen-2-ylurea] |  |
| > 300 |  |  |  |  | Cc1cc(-c2ccc3ncc(NC(=O)NC(C)(C)CC(C)(C)C)nc3c2)cc(C)c1O [Compound 51, 1-[7-(4-Hydroxy-3,5-dimethylphenyl)quinoxalin-2-yl]-3-(1,1,3,3-tetra-methylbutyl)urea] |  |
| 298 to 300 |  |  |  |  | Cc1cc(-c2ccc3ncc(NC(=O)Nc4cccnc4)nc3c2)cc(C)c1O [Compound 52, 1-[7-(4-Hydroxy-3,5-dimethylphenyl)quinoxalin-2-yl]-3-pyridin-3-ylurea] |  |
| 265 |  |  |  |  | Cc1cc(-c2ccc3ncc(NC(=O)N[C@H](C)C(C)C)nc3c2)cc(C)c1O [Compound 53, 1-((R)-1,2-Dimethylpropyl)-3-[7-(4-hydroxy-3,5-dimethylphenyl)-quinoxalin-2-yl]urea] |  |
| 267 |  |  |  |  | Cc1cc(-c2ccc3ncc(NC(=O)N[C@@H](C)C(C)C)nc3c2)cc(C)c1O [Compound 54, 1-((S)-1,2-Dimethylpropyl)-3-[7-(4-hydroxy-3,5-dimethylphenyl)-quinoxalin-2-yl]urea] |  |
| 275 to 276 | 325 | 352 | 188 | 222 | Cc1cc(-c2ccc3ncc(NC(=O)NCC(C)(C)C)nc3c2)cc(C)c1O [Compound 67, 1-(2,2-Dimethyl-propyl)-3-[7-(4-hydroxy-3,5-dimethyl-phenyl)-quinoxalin-2-yl]-urea] | 384 |
| > 300 | 474 | 626 | 453 | 529 | CC(C)NC(=O)Nc1cnc2ccc(-c3ccc(N)cc3)cc2n1 [Compound 68, 1-[7-(4-Amino-phenyl)-quinoxalin-2-yl]-3-isopropyl-urea] | 1670 |
| 260 to 263 | 564 | 1320 | 601 | 801 | CC(C)NC(=O)Nc1cnc2ccc(-c3cnn(C)c3)cc2n1 [Compound 70, 1-Isopropyl-3-[7-(1-methyl-1H-pyrazol-4-yl)-quinoxalin-2-yl]-urea] | 991 |

| melting point [°C] | EC50 (HCT116) [nM] | EC50 (A549) [nM] | EC50 (PC-3) [nM] | EC50 (U87MG) [nM] | SMILES | EC50 (MDA MB468) [nM] |
| --- | --- | --- | --- | --- | --- | --- |
| 297 to 298 |  |  |  |  | CCCCCNC(=O)Nc1cnc2ccc(-c3cc(Cl)c(O)c(Cl)c3)cc2n1 [Compound 71, 1-[7-(3,5-Dichloro-4-hydroxy-phenyl)-quinoxalin-2-yl]-3-pentyl-urea] |  |
| 297 to 298 | 1820 | 3260 | 880 | 3190 | CCCCNC(=O)Nc1cnc2ccc(-c3cc(Cl)c(O)c(Cl)c3)cc2n1 [Compound 72, 1-Butyl-3-[7-(3,5-dichloro-4-hydroxy-phenyl)-quinoxalin-2-yl]-urea] | 779 |
| 295 to 296 | 1560 | 3360 | 1180 | 4140 | CCCNC(=O)Nc1cnc2ccc(-c3cc(Cl)c(O)c(Cl)c3)cc2n1 [Compound 73, 1-[7-(3,5-Dichloro-4-hydroxy-phenyl)-quinoxalin-2-yl]-3-propyl-urea] | 814 |
| 295 to 296 | 3090 | 3910 | 2200 | 10000 | CCNC(=O)Nc1cnc2ccc(-c3cc(Cl)c(O)c(Cl)c3)cc2n1 [Compound 74, 1-[7-(3,5-Dichloro-4-hydroxy-phenyl)-quinoxalin-2-yl]-3-ethyl-urea] | 2100 |
| 289 to 291 |  |  |  |  | CCCCCCCNC(=O)Nc1cnc2ccc(-c3cc(Cl)c(O)c(Cl)c3)cc2n1 [Compound 75, 1-[7-(3,5-Dichloro-4-hydroxy-phenyl)-quinoxalin-2-yl]-3-heptyl-urea] |  |
| 298 to 300 |  |  |  |  | CC(C)NC(=O)Nc1cnc2ccc(-c3cc(Cl)c(O)c(Cl)c3)cc2n1 [Compound 76, 1-[7-(3,5-Dichloro-4-hydroxy-phenyl)-quinoxalin-2-yl]-3-isopropyl-urea] |  |
| 292 to 295 |  |  |  |  | CC(C)(C)NC(=O)Nc1cnc2ccc(-c3cc(Cl)c(O)c(Cl)c3)cc2n1 [Compound 77, 1-tert-Butyl-3-[7-(3,5-dichloro-4-hydroxy-phenyl)-quinoxalin-2-yl]-urea] |  |
| 283 to 286 | 809 | 1180 | 306 | 3110 | O=C(Nc1cnc2ccc(-c3cc(Cl)c(O)c(Cl)c3)cc2n1)NC1CCCCCC1 [Compound 78, 1-Cycloheptyl-3-[7-(3,5-dichloro-4-hydroxy-phenyl)-quinoxalin-2-yl]-urea] | 436 |
| 258 to 260 | 503 | 1030 | 300 | 1160 | O=C(Nc1cnc2ccc(-c3cc(Cl)c(O)c(Cl)c3)cc2n1)NC1CCCCCCC1 [Compound 79, 1-Cyclooctyl-3-[7-(3,5-dichloro-4-hydroxy-phenyl)-quinoxalin-2-yl]-urea] | 253 |
| 295 to 296 |  |  |  |  | O=C(Nc1cnc2ccc(-c3cc(Cl)c(O)c(Cl)c3)cc2n1)NC1CCCC1 [Compound 81, 1-Cyclopentyl-3-[7-(3,5-dichloro-4-hydroxy-phenyl)-quinoxalin-2-yl]-urea] |  |
| 271 to 274 |  |  |  |  | O=C(NCCCc1ccccc1)Nc1cnc2ccc(-c3cc(Cl)c(O)c(Cl)c3)cc2n1 [Compound 84, 1-[7-(3,5-Dichloro-4-hydroxy-phenyl)-quinoxalin-2-yl]-3-(3-phenyl-propyl)-urea] |  |
|  | 1300 | 1840 | 1260 | 495 | O=C(NCCc1ccccc1)Nc1cnc2ccc(-c3cc(Cl)c(O)c(Cl)c3)cc2n1 [Compound 85, 1-[7-(3,5-Dichloro-4-hydroxy-phenyl)-quinoxalin-2-yl]-3-phenethyl-urea] | 1610 |
| > 300 |  |  |  |  | O=C(Nc1ccccc1)Nc1cnc2ccc(-c3cc(Cl)c(O)c(Cl)c3)cc2n1 [Compound 86, 1-[7-(3,5-Dichloro-4-hydroxy-phenyl)-quinoxalin-2-yl]-3-phenyl-urea] |  |
| 237 to 238 |  |  |  |  | CCNC(=S)Nc1cnc2ccc(-c3cc(Cl)c(O)c(Cl)c3)cc2n1 [Compound 88, 1-[7-(3,5-Dichloro-4-hydroxy-phenyl)-quinoxalin-2-yl]-3-ethyl-thiourea] |  |
| 237 to 239 |  |  |  |  | CCCNC(=S)Nc1cnc2ccc(-c3cc(Cl)c(O)c(Cl)c3)cc2n1 [Compound 89, 1-[7-(3,5-Dichloro-4-hydroxy-phenyl)-quinoxalin-2-yl]-3-propyl-thiourea] |  |
| 276 to 278 |  |  |  |  | CC(C)NC(=S)Nc1cnc2ccc(-c3cc(Cl)c(O)c(Cl)c3)cc2n1 [Compound 91, 1-[7-(3,5-Dichloro-4-hydroxy-phenyl)-quinoxalin-2-yl]-3-isopropyl-thiourea] |  |
| 281 to 283 |  |  |  |  | Oc1c(Cl)cc(-c2ccc3ncc(NC(=S)NC4CCCCCC4)nc3c2)cc1Cl [Compound 92, 1-Cycloheptyl-3-[7-(3,5-dichloro-4-hydroxy-phenyl)-quinoxalin-2-yl]-thiourea] |  |
| 275 to 277 |  |  |  |  | CC(C)NC(=O)Nc1cnc2ccc(-c3ccc(O)c(Cl)c3)cc2n1 [Compound 95, 1-[7-(3-Chloro-4-hydroxy-phenyl)-quinoxalin-2-yl]-3-isopropyl-urea] |  |
